Where a chain is given by its changes, count along the chain named.
Assays:
Experiment in all cases: α-Gal A activity in lysates of transfected HEK-293 cells ± migalastat (HEK assay)
Assay type in all cases: cell-based
[1] = molecular target: T1, α-Gal A mutant form Y152N (Homo sapiens, UniProt P06280, Y152N)
T1 construct: expressed in transfected cells; host or cells: HEK-293
T1 sequence (P06280 32-429 Y152N): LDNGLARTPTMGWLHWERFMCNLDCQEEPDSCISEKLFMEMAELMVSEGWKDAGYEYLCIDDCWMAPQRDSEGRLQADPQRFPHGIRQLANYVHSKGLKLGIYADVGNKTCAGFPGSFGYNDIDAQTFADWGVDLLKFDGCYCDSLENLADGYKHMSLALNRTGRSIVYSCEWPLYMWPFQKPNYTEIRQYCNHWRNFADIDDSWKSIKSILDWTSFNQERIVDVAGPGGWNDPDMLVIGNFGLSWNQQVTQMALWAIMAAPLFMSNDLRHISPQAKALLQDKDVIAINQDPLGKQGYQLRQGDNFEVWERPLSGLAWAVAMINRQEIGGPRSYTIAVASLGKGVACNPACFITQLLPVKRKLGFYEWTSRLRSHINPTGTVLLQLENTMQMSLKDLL
Excerpt: (§1) Such mutations or variants are also referred to herein as “HEK assay amenable” mutations or variants.
(§2) The α-Gal A activity is expressed as the nmoles of free 4-MU released per milligram of protein per hour (nmol/mg/hr).

[2] = molecular target: T2, α-Gal A mutant form L394P (Homo sapiens, UniProt P06280, L394P)
T2 construct: expressed in transfected cells; host or cells: HEK-293
T2 sequence (P06280 32-429 L394P): T1 sequence (P06280 32-429 Y152N) with N121Y, L363P
Excerpt: as §1, §2

[3] = molecular target: T3, α-Gal A mutant form N53Y (Homo sapiens, UniProt P06280, N53Y)
T3 construct: expressed in transfected cells; host or cells: HEK-293
T3 sequence (P06280 32-429 N53Y): T1 sequence (P06280 32-429 Y152N) with N22Y, N121Y
Excerpt: as §1, §2

[4] = molecular target: T4, α-Gal A mutant form F169I (Homo sapiens, UniProt P06280, F169I)
T4 construct: expressed in transfected cells; host or cells: HEK-293
T4 sequence (P06280 32-429 F169I): T1 sequence (P06280 32-429 Y152N) with N121Y, F138I
Excerpt: as §1, §2

[5] = molecular target: T5, α-Gal A mutant form A291S (Homo sapiens, UniProt P06280, A291S)
T5 construct: expressed in transfected cells; host or cells: HEK-293
T5 sequence (P06280 32-429 A291S): T1 sequence (P06280 32-429 Y152N) with N121Y, A260S
Excerpt: as §1, §2

[6] = 10 μM migalastat minus baseline
[7] = HEK-293 lysates, 10 μM migalastat 5 days, mean ± SEM

OC[C@H]1NC[C@H](O)[C@@H](O)[C@H]1O [migalastat, (2R,3S,4R,5S)-2-(hydroxymethyl) piperdine-3,4,5-triol]
Absolute increase (% WT) [1, 6]: 25.9 % WT
Relative increase ([1]; 10 μM migalastat ÷ baseline): 1.97
10 μM migalastat α-Gal A activity [1, 7]: 18554 ± 1297 nmol/mg/h
10 μM migalastat α-Gal A activity (% WT) [1, 7]: 51.6 ± 2.2 % WT
Absolute increase (% WT) [2, 6]: 7.2 % WT
Relative increase ([2]; 10 μM migalastat ÷ baseline): 1.52
10 μM migalastat α-Gal A activity [2, 7]: 7749 ± 582 nmol/mg/h
10 μM migalastat α-Gal A activity (% WT) [2, 7]: 22.3 ± 2.4 % WT
Absolute increase (% WT) [3, 6]: 34.5 % WT
Relative increase ([3]; 10 μM migalastat ÷ baseline): 2.04
10 μM migalastat α-Gal A activity [3, 7]: 22871 ± 2192 nmol/mg/h
10 μM migalastat α-Gal A activity (% WT) [3, 7]: 68.5 ± 2.6 % WT
Absolute increase (% WT) [4, 6]: 35.9 % WT
Relative increase ([4]; 10 μM migalastat ÷ baseline): 3.44
10 μM migalastat α-Gal A activity [4, 7]: 15903 ± 567 nmol/mg/h
10 μM migalastat α-Gal A activity (% WT) [4, 7]: 51.7 ± 2.2 % WT
Absolute increase (% WT) [5, 6]: 26.8 % WT
Relative increase ([5]; 10 μM migalastat ÷ baseline): 1.55
10 μM migalastat α-Gal A activity [5, 7]: 20029 ± 1654 nmol/mg/h
10 μM migalastat α-Gal A activity (% WT) [5, 7]: 74.5 ± 4^ % WT

Reference: US20230136297A1, “Methods Of Treating Fabry Disease In Patients Having A Mutation In The GLA Gene” (Amicus Therapeutics, Inc., priority 2020, published 2023)
